{"source": "patent US5104865A", "about": "“Iron complexes of hydroxypyridones useful for treating iron overload” (National Research Development Corporation, priority 1983, dated 1992)", "key": {"[1]": {"biological_target": "T1, Human transferrin (Homo sapiens, UniProt P02787)", "T1 construct": "purchased Sigma", "T1 sequence (P02787 20-698)": "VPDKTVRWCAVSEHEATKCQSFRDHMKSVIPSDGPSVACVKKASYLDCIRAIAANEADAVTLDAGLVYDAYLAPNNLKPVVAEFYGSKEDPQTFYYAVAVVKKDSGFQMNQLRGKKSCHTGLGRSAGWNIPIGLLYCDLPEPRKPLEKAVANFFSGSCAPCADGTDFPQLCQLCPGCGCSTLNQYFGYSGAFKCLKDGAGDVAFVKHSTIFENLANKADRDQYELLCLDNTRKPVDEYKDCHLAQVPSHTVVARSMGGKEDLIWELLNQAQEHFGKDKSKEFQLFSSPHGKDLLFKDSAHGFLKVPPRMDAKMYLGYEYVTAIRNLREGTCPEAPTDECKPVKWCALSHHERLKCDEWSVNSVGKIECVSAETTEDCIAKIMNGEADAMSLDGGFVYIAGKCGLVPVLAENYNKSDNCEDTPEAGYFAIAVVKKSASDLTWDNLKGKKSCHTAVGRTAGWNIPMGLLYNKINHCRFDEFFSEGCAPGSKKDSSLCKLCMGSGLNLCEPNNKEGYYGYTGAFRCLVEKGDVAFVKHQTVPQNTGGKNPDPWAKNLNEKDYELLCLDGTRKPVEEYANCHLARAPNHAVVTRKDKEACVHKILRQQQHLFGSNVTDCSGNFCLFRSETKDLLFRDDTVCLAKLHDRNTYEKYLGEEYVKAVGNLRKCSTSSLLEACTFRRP", "experiment": "Mobilisation of iron from transferrin", "type": "biochemical", "conditions": "for Percentage of iron removed from transferrin after 6 hours: compound 4×10^-3 M, 59Fe(III) transferrin 10^-5 M, tris HCl 0.1M pH 7.4, 6 hours", "method": "Human transferrin (Sigma) was loaded with iron(III) by the method of Bates and Schlaback, J. Biol. Chem. (1973) 248, 3228. ^59 Iron (III) transferrin (10^-5 M) was incubated with a 4×10^-3 M solution in tris HCl (0.1M, pH 7.4) of one of various pyridones as indicated in Table 4 for periods of 6 hours."}, "[2]": {"experiment": "Affinity for iron(III) expressed as log Ksol", "type": "physicochemical", "source_text": "In order to solubilise iron(III) hydroxide, log Ksol must be greater than 0 and in order to remove iron from transferrin, log Ksol should be in excess of 6.0. The log Ksol values for the single ring compounds 3-hydroxyl-1-methylpyrid-2-one and 1,2-dimethyl-3-hydroxypyrid-4-one, by way of example, are 10.0 and 9.5, respectively, thus comparing favourably with those of the bidentate hydroxamates at about 4.0, of catechols at about 8.0, of desferrioxamine at 6.0, and of diethylenetriamine penta-acetic acid (DTPA) at 2.0."}, "[3]": {"biological_target": "T2, Horse spleen ferritin (Equus caballus, UniProt P02791)", "T2 construct": "purchased Sigma; host or cells: horse spleen", "T2 sequence (P02791 2-175 limits assumed)": "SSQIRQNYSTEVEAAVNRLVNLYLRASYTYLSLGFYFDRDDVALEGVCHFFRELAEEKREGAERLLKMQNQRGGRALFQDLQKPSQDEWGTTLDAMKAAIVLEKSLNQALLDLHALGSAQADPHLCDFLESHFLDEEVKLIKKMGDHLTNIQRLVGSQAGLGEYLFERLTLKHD", "conditions": "similar test, cited from earlier work"}, "[4]": {"experiment": "Partition coefficient Kpart between n-octanol and aqueous tris hydrochloride", "conditions": "n-octanol/tris hcl, pH 7.4", "description": "(§1) The partition coefficient Kpart, being the ratio (concentration of compound in n-octanol)/(concentraction of compound in aqueous phase) on partition between n-octanol and aqueous tris hydrochloride (20 mM, pH 7.4), is measured by spectrophotometry at 20° C. for various of the compounds of the previous Examples and for their iron(III) complexes (at 10^-4 M). […] Acid washed glassware is used throughout and, following mixing of 5 ml of the 10^-4 M aqueous solution with 5 ml n-octanol for 1 minute, the aqueous n-octanol mixture is centrifuged at 1,000 g for 30 seconds. The two resulting phases are separated for a concentration determination by spectrophotometry on each. For the metal-free linked hydroxypyridone compounds, the range 220-340 nm is used for concentration determinations whilst for the iron complexes, the range 340-640 nm is used."}, "[5]": {"conditions": "100 uM, pH 7.4", "description": "as §1"}, "[6]": {"biological_target": "T2, Horse spleen ferritin", "experiment": "Mobilisation of iron from ferritin", "type": "biochemical", "conditions": "25° C., pH 7.4", "method": "Horse spleen ferritin (Sigma) was used without further purification and its iron content was estimated spectrophotometrically at 420 nm. The ferritin solution in phosphate buffered saline (Dulbecco-OXOID, 10^-6 M, pH 7.4) was incubated at 25° C. with the compound at 10^-4 M for 6 and 24 hours. Apoferritin (in admixture with ferritin) and the particular linked hydroxypyridone Fe^(III) complex were separated by chromatography on Sephadex G10. The absorption spectra of the high and low molecular weight fractions were recorded and the percentage of iron removed from the ferritin was calculated and is reported in Table 3. For comparative purposes, the procedure was repeated using a blank control, and also with the single ring, bidentate compound 1-ethyl-3-hydroxypyrid-4-one (at 10^-3 M). In addition, results reported in the literature for similar tests with 1×10^-3 M desferrioxamine (Crichton et al, J. Inorganic Biochem., 1980, 13, 305) and with 6×10^-3 M LICAMS (Tufano et al, Biochem. Biophys. Acta, 1981, 668, 420 ) are also given in the Table."}, "[7]": {"tested_on": "human erythrocytes", "experiment": "Permeation of 59Fe labelled iron complexes into human erythrocytes", "type": "cell-based", "conditions": "59Fe complex 10^-3 M, 5% erythrocyte suspension, 1 hour, 37° C., pH 7.4; mean of at least three determinations", "description": "The accumulation of iron by human erythrocytes which are associated with the iron complexes of three compounds described in earlier Examples was studied by incubating for 1 hour at 37° C. a 5% suspension of erythrocytes in a medium consisting of the ^59 Fe labelled iron complex^(1) (10^-3 M) in aqueous sodium chloride (130 mM) buffered to pH 7.4 by tris hydrochloride (2 ml). Following this period of incubation, an aliquot of the erythrocyte/medium mixture was placed above a layer of silicone oil and the erythrocytes separated by centrifugation through the oil. The ^59 Fe levels associated with the erythrocytes and the incubation medium were then counted. By way of comparison, a similar experiment was concluded with ferric citrate."}, "[8]": {"tested_on": "inverted rat jejunal sac", "experiment": "Permeation of inverted rat jejunal sac by iron complexes", "type": "in vitro ADME", "conditions": "relative to ferric chloride as 1; 59Fe complexes, 37° C., up to 1 hour", "source_text": "Rats (male Sprague Dawley, 60 g) were killed and the jejunum removed, everted and cut into three segments (4 cm length). […] The contents of the sac were counted for ^59 Fe and measured spectrophotometrically."}}, "note": "Where two headings read alike, the source gives them in different places."}
{"compound": "O=C(O)CN(CCN(CC(=O)O)CC(=O)O)CC(=O)O", "note": "[EDTA, ethylenediamine tetra-acetic acid, reference compound]", "values": [{"measurement": "Percentage of iron removed from transferrin after 6 hours", "setting": "[1]", "result": 27, "unit": "%"}]}
{"compound": "Cc1c(O)c(=O)ccn1C", "note": "[1,2-dimethyl-3-hydroxypyrid-4-one]", "values": [{"measurement": "log Ksol", "setting": "[2]", "result": 9.5}]}
{"compound": "O=C(NCCCCN(CCCNC(=O)c1cc(S(=O)(=O)O)cc(O)c1O)C(=O)c1cc(S(=O)(=O)O)cc(O)c1O)c1cc(S(=O)(=O)O)cc(O)c1O", "note": "[LICAMS]", "values": [{"measurement": "Percentage of iron removed from ferritin, 6 hours", "setting": "[3]; 6 × 10^-3 M, literature value (Tufano et al 1981)", "result": 0, "unit": "%"}]}
{"compound": "O=C(Cn1cccc(O)c1=O)NCCCN(CCCNC(=O)Cn1cccc(O)c1=O)C(=O)Cn1cccc(O)c1=O", "note": "[Compound 10, N-(3-hydroxy-2-oxopyrid-1-ylacetyl)-N-[3-(3-hydroxy-2-oxopyrid-1-ylacetamido)-propyl]-3-(3-hydroxy-2-oxopyrid-1-ylacetamido)-propylamine]", "values": [{"measurement": "logD at 100 µM", "setting": "[4]", "result": -0.699}, {"measurement": "Partition coefficient Kpart, iron complex [Fe^III -(compound)3 ]", "setting": "[5]", "result": 0.3}]}
{"compound": "CC(=O)N(O)CCCCCNC(=O)CCC(=O)N(O)CCCCCNC(=O)CCC(=O)N(O)CCCCCN", "note": "[Desferrioxamine, desferrioxamine]", "values": [{"measurement": "log Ksol", "setting": "[2]", "result": 6.0}, {"measurement": "Percentage of iron removed from ferritin, 6 hours", "setting": "[3]; 10^-3 M, literature value (Crichton et al 1980)", "result": 1.2, "unit": "%"}, {"measurement": "Percentage of iron removed from transferrin after 6 hours", "setting": "[1]", "result": 17, "unit": "%"}]}
{"compound": "O=C(Cn1cccc(O)c1=O)NCCN(CCNC(=O)Cn1cccc(O)c1=O)CCNC(=O)Cn1cccc(O)c1=O", "note": "[Compound 8]", "values": [{"measurement": "Percentage of iron removed from ferritin, 6 hours", "setting": "[6]; compound 10^-4 M", "result": 3, "unit": "%"}, {"measurement": "Percentage of iron removed from ferritin, 24 hours", "setting": "[6]; compound 10^-4 M", "result": 10, "unit": "%"}, {"measurement": "logD at 100 µM", "setting": "[4]", "result": -1.7}, {"measurement": "Percentage of iron removed from transferrin after 6 hours", "setting": "[1]", "result": 40, "unit": "%"}, {"measurement": "Removal of iron from transferrin, comparison in words", "setting": "[1]; versus desferrioxamine and EDTA", "result": "markedly better results than desferrioxamine or EDTA"}, {"measurement": "Partition coefficient Kpart, iron complex [Fe^III -(compound)3 ]", "setting": "[5]", "result": 0.03}]}
{"compound": "O=C(Cn1cccc(O)c1=O)NCCCCCCNC(=O)Cn1cccc(O)c1=O", "note": "[Compound 4, 1,6-di-(3-hydroxy-2-oxopyrid-1-ylacetamido)-hexane]", "values": [{"measurement": "Percentage of iron removed from ferritin, 6 hours", "setting": "[6]; compound 10^-4 M", "result": "< 1", "unit": "%"}, {"measurement": "Percentage of iron removed from ferritin, 24 hours", "setting": "[6]; compound 10^-4 M", "result": 3, "unit": "%"}]}
{"compound": "O=C(Cn1cccc(O)c1=O)NCCCCCCCCNC(=O)Cn1cccc(O)c1=O", "note": "[Compound 5]", "values": [{"measurement": "logD at 100 µM", "setting": "[4]", "result": -1.77}, {"measurement": "Percentage of iron removed from transferrin after 6 hours", "setting": "[1]", "result": 32, "unit": "%"}, {"measurement": "Partition coefficient Kpart, iron complex [Fe^III -(compound)3 ]", "setting": "[5]", "result": 0.10}]}
{"compound": "Cn1cccc(O)c1=O", "note": "[3-hydroxyl-1-methylpyrid-2-one]", "values": [{"measurement": "log Ksol", "setting": "[2]", "result": 10.0}]}
{"compound": "ferric citrate [Fe^III citrate]", "values": [{"measurement": "Amount of complex entering erythrocytes", "setting": "[7]", "result": "< 5", "unit": "n.mole"}]}
{"compound": "[Cl][Fe]([Cl])[Cl]", "note": "[FeCl3, ferric chloride]", "values": [{"measurement": "Relative iron uptake into serosal space of jejunal sac", "setting": "[8]", "result": 1}]}
{"compound": "O=C(O)CN(CCN(CC(=O)O)CC(=O)O)CCN(CC(=O)O)CC(=O)O", "note": "[DTPA, diethylenetriamine penta-acetic acid]", "values": [{"measurement": "log Ksol", "setting": "[2]", "result": 2.0}]}
{"compound": "CCn1ccc(=O)c(O)c1", "note": "[1-ethyl-3-hydroxypyrid-4-one, reference compound]", "values": [{"measurement": "Percentage of iron removed from ferritin, 6 hours", "setting": "[6]; compound 10^-3 M", "result": 25, "unit": "%"}, {"measurement": "Percentage of iron removed from ferritin, 24 hours", "setting": "[6]; compound 10^-3 M", "result": 44, "unit": "%"}]}
